Laboratory results from ChEMBL document CHEMBL1649315, “Extended-spectrum cephalosporinase in Acinetobacter baumannii” (Antimicrob Agents Chemother, 2010).
≈ marks a conversion by molar mass, not a printed value.

Legend:
[1] = test system: CO/N=C(\C(=O)N[C@@H]1C(=O)N2C(C(=O)[O-])=C(C[n+]3cccc4c3CCC4)CS[C@H]12)c1csc(N)n1; test: (§1) Ratio of Kcat to Km for Acinetobacter baumannii ADC-11 beta-lactamase
[2] = test system: CC1(C)S[C@@H]2[C@H](NC(=O)Cc3ccccc3)C(=O)N2[C@H]1C(=O)O; test: as §1
[3] = test system: CC(C)(O/N=C(\C(=O)N[C@@H]1C(=O)N2C(C(=O)[O-])=C(C[n+]3ccccc3)CS[C@H]12)c1csc(N)n1)C(=O)O; test: as §1
[4] = test system: CC1(C)S[C@@H]2[C@H](NC(=O)[C@H](N)c3ccccc3)C(=O)N2[C@H]1C(=O)O; test: as §1
[5] = test system: CCN1CCN(C(=O)N[C@@H](C(=O)N[C@@H]2C(=O)N3[C@@H]2SC(C)(C)[C@@H]3C(=O)O)c2ccccc2)C(=O)C1=O; test: as §1
[6] = test system: CC(=O)OCC1=C(C(=O)O)N2C(=O)[C@@H](NC(=O)Cc3cccs3)[C@H]2SC1; test: (§2) Activity of Acinetobacter baumannii ADC-11 beta-lactamase
[7] = test system: CO/N=C(\C(=O)N[C@@H]1C(=O)N2C(C(=O)O)=C(COC(C)=O)CS[C@H]12)c1csc(N)n1; test: as §2
[8] = test system: CO/N=C(\C(=O)N[C@@H]1C(=O)N2C(C(=O)[O-])=C(C[n+]3cccc4c3CCC4)CS[C@H]12)c1csc(N)n1; test: as §2
[9] = test system: CC1(C)S[C@@H]2[C@H](NC(=O)Cc3ccccc3)C(=O)N2[C@H]1C(=O)O; test: as §2
[10] = test system: O=C(Cc1cccs1)N[C@@H]1C(=O)N2C(C(=O)[O-])=C(C[n+]3ccccc3)CS[C@H]12; test: as §2
[11] = test system: CC(C)(O/N=C(\C(=O)N[C@@H]1C(=O)N2C(C(=O)[O-])=C(C[n+]3ccccc3)CS[C@H]12)c1csc(N)n1)C(=O)O; test: as §2
[12] = test system: CC1(C)S[C@@H]2[C@H](NC(=O)[C@H](N)c3ccccc3)C(=O)N2[C@H]1C(=O)O; test: as §2
[13] = test system: CCN1CCN(C(=O)N[C@@H](C(=O)N[C@@H]2C(=O)N3[C@@H]2SC(C)(C)[C@@H]3C(=O)O)c2ccccc2)C(=O)C1=O; test: as §2
[14] = test system: CO[C@@]1(NC(=O)Cc2cccs2)C(=O)N2C(C(=O)O)=C(COC(N)=O)CS[C@@H]21; test: Ratio of Kcat to Ki for Acinetobacter baumannii ADC-11 beta-lactamase
Acinetobacter baumannii [15] = test: Antimicrobial activity against Acinetobacter baumannii KI by Etest method in presence of Tazobactam; assay type: functional
Escherichia coli [16] = test: Antimicrobial activity against Escherichia coli TOP10 harboring pADC-33 plasmid carrying entire blaAmpC gene by Etest method in presence of Tazobactam; assay type: functional
Acinetobacter baumannii [17] = test: Antimicrobial activity against Acinetobacter baumannii CIP70.10 by Etest method in presence of Tazobactam; assay type: functional
Escherichia coli [18] = test: Antimicrobial activity against Escherichia coli TOP10 harboring pADC-33 plasmid carrying entire blaAmpC gene with alanine residue deletion at 215 position and R210P substitution by Etest method; assay type: functional
Escherichia coli [19] = test: Antimicrobial activity against Escherichia coli TOP10 harboring pADC-11 plasmid carrying entire blaAmpC gene with alanine residue deletion at 215 position and R210P substitution by Etest method in presence of Tazobactam; assay type: functional
Acinetobacter baumannii [20] = test: Antimicrobial activity against Acinetobacter baumannii AYE expressing VEB-1 gene by Etest method; assay type: functional
Escherichia coli [21] = test: Antimicrobial activity against Escherichia coli TOP10 harboring pADC-33 plasmid carrying entire blaAmpC gene with alanine residue deletion at 215 position by Etest method in presence of Tazobactam; assay type: functional
Escherichia coli [22] = test: Antimicrobial activity against Escherichia coli TOP10 harboring pADC-50 plasmid by Etest method in presence of Tazobactam; assay type: functional
Escherichia coli [23] = test: Antimicrobial activity against Escherichia coli TOP10 harboring pTOPO plasmid by Etest method; assay type: functional
Escherichia coli [24] = test: Antimicrobial activity against Escherichia coli TOP10 harboring pADC-50 plasmid by Etest method; assay type: functional
Acinetobacter baumannii [25] = test: Antimicrobial activity against Acinetobacter baumannii CIP70.10 by Etest method; assay type: functional
Escherichia coli [26] = test: Antimicrobial activity against Escherichia coli TOP10 harboring pADC-11 plasmid by Etest method in presence of Tazobactam; assay type: functional
Escherichia coli [27] = test: Antimicrobial activity against Escherichia coli TOP10 harboring pTOPO plasmid by Etest method in presence of Tazobactam; assay type: functional
Escherichia coli [28] = test: Antimicrobial activity against Escherichia coli TOP10 harboring pADC-33 plasmid by Etest method; assay type: functional
Escherichia coli [29] = test: Antimicrobial activity against Escherichia coli TOP10 harboring pADC-11 plasmid carrying entire blaAmpC gene with alanine residue insertion at 215 position by Etest method in presence of Tazobactam; assay type: functional
Escherichia coli [30] = test: Antimicrobial activity against Escherichia coli TOP10 harboring pADC-11 plasmid carrying entire blaAmpC gene with alanine residue insertion at 215 position and R210P substitution by Etest method; assay type: functional
Escherichia coli [31] = test: Antimicrobial activity against Escherichia coli TOP10 harboring pADC-11 plasmid by Etest method; assay type: functional
Escherichia coli [32] = test: Antimicrobial activity against Escherichia coli TOP10 harboring pADC-11 plasmid with entire blaAmpC gene by Etest method; assay type: functional
Escherichia coli [33] = test: Antimicrobial activity against Escherichia coli TOP10 harboring pADC-33 plasmid carrying entire blaAmpC gene with alanine residue deletion at 215 position and R210P substitution by Etest method in presence of Tazobactam; assay type: functional
Acinetobacter baumannii [34] = test: Antimicrobial activity against Acinetobacter baumannii AYE expressing VEB-1 gene by Etest method in presence of Tazobactam; assay type: functional
Escherichia coli [35] = test: Antimicrobial activity against Escherichia coli TOP10 harboring pADC-11 plasmid carrying entire blaAmpC gene with alanine residue insertion at 215 position by Etest method; assay type: functional
Escherichia coli [36] = test: Antimicrobial activity against Escherichia coli TOP10 harboring pADC-33 plasmid with entire blaAmpC gene by Etest method; assay type: functional
Escherichia coli [37] = test: Antimicrobial activity against Escherichia coli TOP10 harboring pADC-33 plasmid by Etest method in presence of Tazobactam; assay type: functional
Escherichia coli [38] = test: Antimicrobial activity against Escherichia coli TOP10 harboring pADC-11 plasmid carrying entire blaAmpC gene by Etest method in presence of Tazobactam; assay type: functional
Escherichia coli [39] = test: Antimicrobial activity against Escherichia coli TOP10 harboring pADC-33 plasmid with entire blaAmpC gene with alanine residue deletion at 215 position by Etest method; assay type: functional
Acinetobacter baumannii [40] = test: Ratio of Kcat to Km for Acinetobacter baumannii ADC-33 beta-lactamase to Kcat to Km for Acinetobacter baumannii ADC-11 beta-lactamase
Acinetobacter baumannii [41] = test: Antimicrobial activity against Acinetobacter baumannii KI by Etest method; assay type: functional

ADC-11 (Acinetobacter baumannii) (from UniProt D6NSM8)
kcat/Km [1]: 4000 M⁻¹ s⁻¹ | kcat/Km [2]: 4e+06 M⁻¹ s⁻¹ | kcat/Km [3]: 1000 M⁻¹ s⁻¹ | kcat/Km [4]: 1e+06 M⁻¹ s⁻¹ | kcat/Km [5]: 200000 M⁻¹ s⁻¹ | Km [6]: 210 µM | kcat [6]: 550 s⁻¹ | kcat [7]: 0.2 s⁻¹ | Km [8]: 1700 µM | kcat [8]: 8 s⁻¹ | Km [9]: 12 µM | kcat [9]: 45 s⁻¹ | kcat [10]: 600 s⁻¹ | Km [11]: 10 µM | kcat [11]: 0.01 s⁻¹ | Km [12]: 7 µM | kcat [12]: 5 s⁻¹ | kcat [13]: 5 s⁻¹ | kcat/Km [14]: 3e+06 M⁻¹ s⁻¹

CCN1CCN(C(=O)N[C@@H](C(=O)N[C@@H]2C(=O)N3[C@@H]2SC(C)(C)[C@@H]3C(=O)O)c2ccccc2)C(=O)C1=O [PIPERACILLIN]
MIC (Acinetobacter baumannii [15]): 128 µg/mL | MIC (Escherichia coli [16]): > 256 µg/mL | MIC (Acinetobacter baumannii [17]): 4 µg/mL | MIC (Escherichia coli [18]): > 256 µg/mL | MIC (Escherichia coli [19]): 256 µg/mL | MIC (Acinetobacter baumannii [20]): > 256 µg/mL | MIC (Escherichia coli [21]): 256 µg/mL | MIC (Escherichia coli [22]): 16 µg/mL | MIC (Escherichia coli [23]): 1 µg/mL (≈ 1.93 µM) | MIC (Escherichia coli [24]): 16 µg/mL (≈ 30.9 µM) | MIC (Acinetobacter baumannii [25]): 16 µg/mL (≈ 30.9 µM) | MIC (Escherichia coli [26]): 8 µg/mL | MIC (Escherichia coli [27]): 1 µg/mL | MIC (Escherichia coli [28]): 32 µg/mL (≈ 61.8 µM) | MIC (Escherichia coli [29]): 256 µg/mL | MIC (Escherichia coli [30]): > 256 µg/mL | MIC (Escherichia coli [31]): 8 µg/mL (≈ 15.5 µM) | MIC (Escherichia coli [32]): > 256 µg/mL | MIC (Escherichia coli [33]): 128 µg/mL | MIC (Acinetobacter baumannii [34]): 128 µg/mL | MIC (Escherichia coli [35]): > 256 µg/mL | MIC (Escherichia coli [36]): > 256 µg/mL | MIC (Escherichia coli [37]): 32 µg/mL | MIC (Escherichia coli [38]): 128 µg/mL | MIC (Escherichia coli [39]): > 256 µg/mL | kcat/Km (Acinetobacter baumannii [40]): 1.2e+06 M⁻¹ s⁻¹ | MIC (Acinetobacter baumannii [41]): > 256 µg/mL
